Key:
[1] = target: T1, Cs (R)-Bdh (Clostridium saccharoperbutylacetonicum, UniProt M1MWX5); assay: specific activity, absorbance at […] nm; type: biochemical; details: 10 mM m-BDO, 4 mM NADP+, 50 mM glycine-NaOH pH 10.0
T1 sequence (M1MWX5 1-361): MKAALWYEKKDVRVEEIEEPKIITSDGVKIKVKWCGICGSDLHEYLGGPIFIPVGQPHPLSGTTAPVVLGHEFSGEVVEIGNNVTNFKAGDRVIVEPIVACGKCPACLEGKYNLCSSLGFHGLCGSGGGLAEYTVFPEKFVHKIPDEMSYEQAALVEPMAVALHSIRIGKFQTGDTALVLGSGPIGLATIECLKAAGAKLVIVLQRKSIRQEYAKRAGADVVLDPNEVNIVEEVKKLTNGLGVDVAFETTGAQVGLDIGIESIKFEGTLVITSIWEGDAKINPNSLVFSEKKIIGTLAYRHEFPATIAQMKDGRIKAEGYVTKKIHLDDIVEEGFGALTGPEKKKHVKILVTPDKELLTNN

[2] = target: T2, Ll Nox (Lactococcus cremoris, UniProt A2RIB7); assay: absorbance at […] nm, initial rates; type: biochemical; details: 50 mM Tris-Cl pH 7.0, 37 °C; O2 as acceptor
T2 sequence (A2RIB7 1-446): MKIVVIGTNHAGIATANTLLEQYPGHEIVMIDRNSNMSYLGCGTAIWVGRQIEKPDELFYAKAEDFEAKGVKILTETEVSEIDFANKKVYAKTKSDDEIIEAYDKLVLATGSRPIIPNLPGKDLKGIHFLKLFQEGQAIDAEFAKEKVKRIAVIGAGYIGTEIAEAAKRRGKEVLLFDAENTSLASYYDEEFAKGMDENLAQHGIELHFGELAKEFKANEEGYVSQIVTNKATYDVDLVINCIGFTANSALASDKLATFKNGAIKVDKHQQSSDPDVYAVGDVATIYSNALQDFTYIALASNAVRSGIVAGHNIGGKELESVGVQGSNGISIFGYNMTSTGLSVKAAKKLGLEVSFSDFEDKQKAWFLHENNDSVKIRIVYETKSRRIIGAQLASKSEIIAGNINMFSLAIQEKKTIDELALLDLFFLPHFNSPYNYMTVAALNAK

SMILES	specific activity [1]	kcat/Km app [2]
NC(=O)c1ccc[n+]([C@@H]2O[C@H](COP(=O)(O)OP(=O)(O)OC[C@H]3O[C@@H](n4cnc5c(N)ncnc54)[C@H](OP(=O)(O)O)[C@@H]3O)[C@@H](O)[C@H]2O)c1 [NADP+]	We subsequently confirmed specific activity with NADP^+	–
NC(=O)C1=CN([C@@H]2O[C@H](COP(=O)(O)O)[C@@H](O)[C@H]2O)C=CC1 [NMNH]	–	Ll Nox WT (gray) and Nox Ortho (yellow) toward NADH, NADPH and NMNH

From article PMC12316058 (Nature chemical biology, 2024)
